According to US10251891B2, “Aprepitant oral liquid formulations” (InnoPharma, Inc., priority 2014, dated 2019):

Assay: Solubility of aprepitant in water
Type: physicochemical
Excerpt: Moreover, it should be recognized that the particle size of the active pharmaceutical ingredient may have important effects on the bioavailability of a formulation. Smaller particle sizes often have increased surface area and will thus dissolve faster than larger particles. However, decreasing the particle size will often increase agglomeration of the particles, and an increased surface area of smaller particles can result in faster degradation of the compound, e.g., due to oxidation and/or hydrolysis. The inventors have now found out that a fine particle size, and especially an average particle size between 0.250 and 0.400 micron, could achieve a desirable bioavailability (typically identical to that of commercially available solid oral aprepitant, EMEND). Such particle size may preferably be achieved using air-jet milling, ball milling, or mortar milling.

solubility in water: practically insoluble in water
Structure (SMILES): C[C@@H](O[C@H]1OCCN(Cc2n[nH]c(=O)[nH]2)[C@H]1c1ccc(F)cc1)c1cc(C(F)(F)F)cc(C(F)(F)F)c1 [Aprepitant, 5-([(2R,3S)-2-((R)-1-[3,5-bis(trifluoromethyl)phenyl]ethoxy)-3-(4-fluoro-phenyl)morpholino]methyl)-1H-1,2,4-triazol-3(2H)-one]
